{"source": "patent US20050143406A1", "about": "“Amino-substituted hypocrellins for use as sonosensitizers” (priority 2002, published 2005)", "key": {"[1]": {"system": "EMT6 murine mastocytoma in vitro", "assay": "Sonosensitizing potential: LD50 for a fixed dose of ultrasound", "assay_type": "cell-based"}, "[2]": {"system": "EMT6 murine mastocytoma in vitro", "assay": "Photosensitizing potential: LD50 for a fixed dose of light", "assay_type": "cell-based"}, "[3]": {"system": "Human acute promyelocytic leukemia HL-60 cells", "assay": "Sonodynamic therapy survival assay, screening of sonosensitizers in vitro", "assay_type": "cell-based", "settings": "for Mean - DMSO Bg: mean survival relative to DMSO only (100.0); for Survival, % Mean / Survival, %: insonated HL-60 cells; for Survival, %: single determinations", "from_the_text": "This screening assay makes use of human promyelocytic leukemia cells growing in suspension culture. The transducer of an UltraMax ultrasound generator for physiotherapy was adapted for in vitro studies by fitting a tissue culture-compatible Teflon cuff such that cell suspensions could be conveniently insonated. The following diagrams represent the equipment employed.\nHuman acute promyelocytic leukemia HL-60 cells (ATCC No CCL-240) were maintained in RPMI 1640 cell culture medium supplemented with 7 g/L of L-glutamine (Gibco, Grand Island N.Y.), 10% fetal bovine serum (Cansera), and 1% penicillin-streptomycin-neomycin (Gibco), buffered with NaHCO3 to pH 7.4. They were incubated at 37° C. in a humidified atmosphere of 95% air, 5% CO2, and maintained at cell densities between 2.0×10^5 to 1.0×10^6 cells/mL. For insonations in the presence of Hp (a porphyrin positive control) or hypocrellin test compounds, cells were brought to approximately 1.0×10^6 cells/mL, incubated with the putative sensitizer at 37° C. for 2 hours in T-flasks, equilibrated for 30 minutes at room temperature, resuspended and insonated. All procedures took place in low-light conditions to avoid spurious photosensitization. Cells were gently resuspended for 10 seconds before insonation. […] Stock sensitizer was prepared by slowly adding RPMI-1640 medium to the appropriate volume at final sensitizer concentrations between 0.3 mM and 1 mM.\nAliquots of cells were withdrawn prior to insonation to serve as the original value for cell survival. Cells were suspended in Isoton diluent and counted in a Coulter electronic particle counter. Insonation proceeded at a power density of 2 W, at times varying between 3- and 10 seconds to effect cytotoxicity by sonosensitization. Control cultures were subjected to the appropriate dose of ultrasound, in the presence of DMSO, and the absence of the test sonosensitizer. Following ultrasound treatment, aliquots of the cell suspension were withdrawn for counting as above, and the survival fraction, S, was calculated as the fraction: S=(Cell number following insonation/cell number prior to insonation)×100. Results:\nHL-60 cells were treated with perylenequinone sensitizers and insonated as described above. The surviving fractions were plotted against sensitizer concentration. […] Cell survival decreased steeply over the next two decades of sensitizer concentration."}, "[4]": {"system": "syngeneic murine mastocytoma, EMT6", "assay": "Efficiency of DMHB in vivo: SDT of EMT6 tumors in Balb/c mice", "settings": "Balb/c mice with EMT6 flank tumors, DMHB i.p. 50 μM total body concentration, ultrasound 1 MHz 0.2 W/cm^2 10 min after 48 h; FIG. 2", "description": "We explored the use of DMHB in Balb/c mice engrafted in the flank with the syngeneic murine mastocytoma, EMT6. The mice were inoculated subcutaneously with 1.0×10^5 EMT6 tumor cells in sterile injectable saline. Within 7 days, detectable tumors are evident. Mice were randomized into a control group and a SDT treatment group, which differed only in that the sonosensitizer was not present in the drug solvent (see below). Fresh DMHB was dissolved in mineral oil, and injected intraperitoneally into each mouse to achieve a total body concentration of 50 μM. Following a an interval of 48 h for biodistribution of the sensitizer, the mice were lightly anesthetized with Metafane, and placed on a 2% agarose gel, with the tumor lying in a depression of the gel which was juxtaposed to the transducer of an UltraMax physiotherapy ultrasound generator. Ultrasound was applied at a frequency of 1 MHz, at a power density of 0.2 W/cm^2, for a 10-minute period. The maximum energy applied to the tumor volume was approximately 500 J. Tumor growth was monitored daily by caliper measurements in three mutually orthogonal planes. Tumor volume was calculated from the expression, V=π/6×d1×d2×d3 where V=volume (mm^3), and d1,2, and 3 are the three mutually orthogonal diameters. The endpoint for the assay was the proportion of tumors reaching 4 times treatment volume, which was plotted as a function of time. […]"}, "[5]": {"settings": "HL-60 cells, fixed dose and energy of ultrasound"}}, "note": "“And” between values parts separate entries of the source, which are not always exact repeats. Equal values may be shown once."}
{"molecule": "2-(N,N-dimethyl-amino) propylamine-Hypocrellin B [HBDD-R1]", "values": [{"measurement": "Sonosensitizing Potential (Molar Concentration which exerts LD50)", "setting": "[1]", "result": 1.0, "unit": "mM"}]}
{"molecule": "2-morpholino-ethylaminated HB [HBAM-R1]", "values": [{"measurement": "Photosensitizing Potential (Molar Concentration which exerts LD50)", "setting": "[2]", "result": 4.0, "unit": "µM"}, {"measurement": "Sonosensitizing Potential (Molar Concentration which exerts LD50)", "setting": "[1]", "result": "None"}]}
{"molecule": "CCCCNc1c2c3c4c(c(OC)c(=O)c5c(O)cc(OC)c(c6c(OC)cc(O)c(c1=O)c63)c54)CC(C)=C2C(C)=O", "note": "[DMHBb, 2-butylamino-2-demethoxy-Hypocrellin B]", "values": [{"measurement": "Photosensitizing Potential (Molar Concentration which exerts LD50)", "setting": "[2]", "result": 0.1, "unit": "µM"}, {"measurement": "Sonosensitizing Potential (Molar Concentration which exerts LD50)", "setting": "[1]", "result": 0.1, "unit": "mM"}]}
{"molecule": "COc1c2c3c4c(c(OC)c(=O)c5c(O)cc(OC)c(c6c(OC)cc(O)c(c1=O)c63)c54)[C@@H](C(C)=O)[C@@](C)(O)C2", "note": "[HA, Hypocrellin A, reference compound]", "values": [{"measurement": "Photosensitizing Potential (Molar Concentration which exerts LD50)", "setting": "[2]", "result": 4.0, "unit": "µM"}, {"measurement": "Sonosensitizing Potential (Molar Concentration which exerts LD50)", "setting": "[1]", "result": "None"}]}
{"molecule": "CC1=C(CCC(=O)O)c2cc3[nH]c(cc4nc(cc5[nH]c(cc1n2)c(C)c5C(C)O)C(C)=C4C(C)O)c(C)c3CCC(=O)O", "note": "(stereo not shown) [Hp, hematoporphyrin, reference compound]", "values": [{"measurement": "LD50", "setting": "[3]; [5]", "result": 1.0, "unit": "mM"}]}
{"molecule": "Demethylated-HB [DMHBa]", "values": [{"measurement": "Photosensitizing Potential (Molar Concentration which exerts LD50)", "setting": "[2]", "result": 3.0, "unit": "µM"}, {"measurement": "Sonosensitizing Potential (Molar Concentration which exerts LD50)", "setting": "[1]", "result": 1.0, "unit": "mM"}]}
{"molecule": "Ethylenediamne-Hypocrellin B [HBED-R2]", "values": [{"measurement": "Photosensitizing Potential (Molar Concentration which exerts LD50)", "setting": "[2]", "result": 4.0, "unit": "µM"}, {"measurement": "Sonosensitizing Potential (Molar Concentration which exerts LD50)", "setting": "[1]", "result": "None"}]}
{"molecule": "Methylamine-Hypocrellin B [HBMA-IV]", "values": [{"measurement": "Photosensitizing Potential (Molar Concentration which exerts LD50)", "setting": "[2]", "result": 1.0, "unit": "µM"}, {"measurement": "Sonosensitizing Potential (Molar Concentration which exerts LD50)", "setting": "[1]", "result": "None"}]}
{"molecule": "demethoxy hypocrellin B [DMHB]", "values": [{"measurement": "tumor growth", "setting": "[4]", "result": "tumor growth is inhibited"}, {"measurement": "maximum sonotoxic effect compared with Hp control", "setting": "[3]; HL-60 cells", "result": "comparable to that of the Hp control"}, {"measurement": "LD50", "setting": "[3]; [5]", "result": "approximately 100 μM"}, {"measurement": "difference of LD50 versus hematoporphyrin (Hp) control", "setting": "[3]; [5]", "result": 10, "unit": "fold"}, {"measurement": "sonotoxicity", "setting": "[3]; HL-60 cells, up to 100 μM", "result": "negligible sonotoxicity"}, {"measurement": "Mean - DMSO Bg", "setting": "[3]; 1 μM DMHB", "result": 83.0, "unit": "%"}, {"measurement": "Mean - DMSO Bg", "setting": "[3]; 10 μM DMHB", "result": 71.1, "unit": "%"}, {"measurement": "Mean - DMSO Bg", "setting": "[3]; 100 μM DMHB", "result": 63.2, "unit": "%"}, {"measurement": "Survival, % Mean", "setting": "[3]; DMSO + 1 μM DMHB", "result": 41.1, "unit": "%"}, {"measurement": "Survival, % Mean", "setting": "[3]; DMSO + 10 μM DMHB", "result": 35.2, "unit": "%"}, {"measurement": "Survival, % Mean", "setting": "[3]; DMSO + 100 μM DMHB", "result": 31.3, "unit": "%"}, {"measurement": "Survival, %", "setting": "[3]; DMSO + 1 μM DMHB", "result": "41.8% and 48.2% and 33.5%"}, {"measurement": "Survival, %", "setting": "[3]; DMSO + 10 μM DMHB", "result": "37.3% and 43.3% and 24.9%"}, {"measurement": "Survival, %", "setting": "[3]; DMSO + 100 μM DMHB", "result": "30.7% and 39.4% and 23.7%"}]}
